SMILES strings stand for the structures. Peptide text beside a SMILES is read from it.

For the compound `COc1ccccc1C`, the log partition coefficient (logP) is 2.74.

The compound `c1ccc(Cn2nccn2)cc1` returned a logP of 1.56.

`OCC(O)c1ccc(O)c(O)c1` (stereo unspecified): the logP was -1.01.

On to `CCCCOc1ccc(O)cc1`, for which the lipophilicity (logP) came to 2.9.

In turn, `O=C(CN1CCCCC1)Nc1cccc(F)c1` gave a logP of 2.85. The logP values of the last two compounds are within 0.2 log units of each other.

The compound `CCCCCc1ccncc1` returned a logP of 3.75.

For `CCCCOc1ccc(OC(=O)NC)cc1`, the logP amounted to 2.86.

In turn, `O=C(O)c1cccc(O)c1` showed a logP of 1.5.

Turning to `CCOc1ccccc1OCC`, the log partition coefficient (logP) was determined as 2.42.

In turn, `Cc1ccccc1Cl` had a logP of 3.42.

In the case of `CC1=NCCN1`, the logP was 0.52.

For `O=C1NC(=O)c2ccccc21`, the logP is 1.15.

`CC(=O)Nc1ccccc1[N+](=O)[O-]` came in with a lipophilicity (logP) of 1.

In turn, `c1ccc(Nc2cccc3ccccc23)cc1` had a lipophilicity (logP) of 4.2.

Consider `Nc1ccc(C(=O)O)c(Cl)c1`, for which the logP stood at 1.33.

Consider `OCCCCc1ccccc1`, for which the lipophilicity (logP) is 2.35.

`NCCc1ccncc1`: the lipophilicity (logP) was -0.01.

As to `O=C(O)C1Cc2cc(Cl)ccc2O1` (stereo unspecified), the logP came to 2.11.

As to `CC(C)NC(C)(C)C`, the log partition coefficient (logP) was found to be 1.56.

Consider `COc1ccc(C(C[N+](=O)[O-])c2ccc(OC)cc2)cc1`, for which the logP stood at 3.57.

`COc1cccc(OC(=O)c2ccc(N)cc2O)c1`: the lipophilicity (logP) worked out at 3.25.

On to `CN=Cc1ccccc1`, for which the logP was 1.64.

In the case of `O=C(O)c1ccc(Oc2ccccc2)cc1`, the lipophilicity (logP) came to 3.91.

For the compound `CN(C(N)=O)c1ccccc1`, the logP was 0.42.

`O=C(Nc1ccccc1)C1CNCCN1` (stereo unspecified) gave a logP of 0.48.

The compound `Cc1ccc(OCC(=O)O)cc1` returned a log partition coefficient (logP) of 1.86.

With `O=[N+]([O-])c1ccco1`, the logP amounted to 0.66.

Compound `CCC(=O)c1ccncc1` showed a log partition coefficient (logP) of 0.77.

For the compound `FC(F)(F)c1ccccc1N=C1NCCN1`, the log partition coefficient (logP) was determined as 1.42.

The compound `Nc1ccncc1` registered a logP of 0.32.

The compound `O=C1CCC(=O)N1c1ccccc1F` displayed a lipophilicity (logP) of 0.22.

With `CNC(=O)Nc1ccccc1`, the logP is 1.12.

For the compound `c1cncc(CN2CCCC2)c1`, the log partition coefficient (logP) turned out to be 1.1. This logP and that of the compound before are within 0.2 log units of each other.

On to `c1ccc(N2CCCC2)cc1`, for which the logP worked out at 3.56.

The compound `CCCNc1ccccc1` displayed a logP of 2.45.

On to `C1=COCCC1`, for which the logP turned out to be 0.69.

Compound `COC(=O)NC(=S)Nc1ccccc1NC(=S)NC(=O)OC` showed a logP of 1.4.

With `CON(C)C(=O)Nc1cccc(C(F)(F)F)c1`, the logP came to 2.64.

In the case of `O=C(Cc1ccccc1)NC(CO)C(O)c1ccc([N+](=O)[O-])cc1` (stereo unspecified), the logP was 1.52.

In the case of `COc1ccc(Cl)nn1`, the log partition coefficient (logP) was determined as 0.89.

With `OCC1OC(n2cnc3c(S)ncnc32)C(O)C1O` (stereo unspecified), the logP is -0.6.

`C=C(C)C(=O)OC(C)(C)C` displayed a logP of 2.54.

With `c1ccc2c(c1)Cc1ccccc1-2`, the logP stood at 4.18.

For the compound `CCCCOc1ccc(C(=O)OCCN(C)C)cc1`, the logP was 3.91.

For the compound `Clc1cccc(-c2ccccc2)c1`, the logP was determined as 4.58.

On to `CCCCCCCCC1(c2ccncc2)CCC(=O)NC1=O` (stereo unspecified), for which the logP turned out to be 4.04.

On to `CC(C)C(C)O` (stereo unspecified), for which the log partition coefficient (logP) came to 1.28.

In the case of `CCCCOC(=O)n1cnc(CC(NC(=O)C2CCC(=O)N2)C(=O)N2CCCC2C(N)=O)c1` (stereo unspecified), the lipophilicity (logP) was -0.47.

`CC(=O)c1ccccc1[N+](=O)[O-]` had a logP of 1.28.

Compound `O=[N+]([O-])c1cccc(I)c1` returned a logP of 2.94.

Compound `OCCNCc1ccccc1` displayed a lipophilicity (logP) of 0.79.

Compound `CN(C)C(=O)Oc1ccccc1` returned a logP of 1.56.

In turn, `CCOC(=O)C(=Cc1ccc(OC)cc1OC)C(C)=O` gave a logP of 2.41.

`OCCN1CCN(CCC=C2c3ccccc3Sc3ccc(C(F)(F)F)cc32)CC1` came in with a log partition coefficient (logP) of 4.51.

On to `N#Cc1cccc(O)c1`, for which the logP turned out to be 1.7.

As to `CN1C(=O)CN=C(c2ccccc2)c2cc(C#N)ccc21`, the lipophilicity (logP) came to 1.8.

In turn, `CC(NNC(=O)COc1ccccc1)c1ccccc1` (stereo unspecified) came in with a logP of 2.46.

Compound `FC(F)(F)c1ccccc1Cl` yielded a logP of 3.53.

In turn, `CCC1(CC)C(=O)NC(=O)N(C)C1=O` registered a logP of 1.15.

On to `Cc1nc(-c2ccccc2)c2ccccc2n1`, for which the logP worked out at 3.1.

As to `CC(=O)NCc1ccccc1`, the logP was found to be 0.95.

Compound `CCCCCCCCCCCCCC[n+]1ccccc1.[Br-]` showed a logP of 1.32.

`FCC1CO1` (stereo unspecified) displayed a lipophilicity (logP) of -0.16.

For `C[C@]12CCC(=O)C=C1CC[C@@H]1[C@@H]2C(=O)C[C@@]2(C)[C@H]1CC[C@]2(O)C(=O)CO`, the log partition coefficient (logP) stood at 1.47.

The compound `C[C@H](N[C@H](CCc1ccccc1)C(=O)O)C(=O)N1CCC[C@H]1C(=O)O` registered a lipophilicity (logP) of -0.74.

Turning to `CCCCS`, the logP stood at 2.28.

On to `NC(=S)c1cccnc1`, for which the log partition coefficient (logP) worked out at 0.67.

In turn, `N#Cc1cccc(CC(=O)O)c1` registered a logP of 1.18.

Take `Nc1ncnc2ncn(C(c3ccccc3)c3ccccc3)c12`: the log partition coefficient (logP) was determined as 3.19.

`CCCN(CCC)C1CCOc2ccc(O)cc21` (stereo unspecified) yielded a lipophilicity (logP) of 3.17.

`CS(=O)c1ccccc1` (stereo unspecified) had a log partition coefficient (logP) of 0.55.

In turn, `CC(=O)NCC(=O)N[C@@H](CC(C)C)C(=O)NCC(N)=O` (Ac-Gly-Leu-Gly-NH2) registered a logP of -1.23.

`Cc1ccc2cc(C)c(C)cc2c1` registered a logP of 4.73.

`N=C(N)c1ccc(N)cc1` yielded a lipophilicity (logP) of -0.37.

As to `CC(C)(C)OC(N)=O`, the lipophilicity (logP) came out at 0.48.

The compound `CCC1(CC)C(=O)NC(=O)NC1=O` showed a lipophilicity (logP) of 0.65.

Compound `CN(C)C(=O)Nc1ccc(C(=O)c2ccccc2)cc1` registered a logP of 2.59.

`N#CC1CC1` registered a logP of 0.68.

Turning to `Cc1ccccc1NS(=O)(=O)c1ccc(N)cc1`, the log partition coefficient (logP) is 2.03.

The compound `Nc1ncc([N+](=O)[O-])s1` displayed a logP of 0.83.

For the compound `OCCOc1c(Br)cc(Br)cc1Br`, the logP was 3.42.

Compound `CCN(N=O)C(=O)Nc1ccccc1` displayed a logP of 2.25.

Regarding `CC(Cl)(Cl)Cl`, the logP worked out at 2.49.

As for `O=C(O)c1cccc(C(=O)O)c1`, the logP is 1.66.

The compound `c1ccc2nc(-c3ccc4ccccc4n3)ccc2c1` registered a log partition coefficient (logP) of 4.31.

Compound `O=[N+]([O-])c1ccc(C=Cc2ncccn2)o1` had a log partition coefficient (logP) of 1.34.

The compound `C=CCCCCCC` gave a log partition coefficient (logP) of 4.57.

In turn, `CNC(=O)Oc1ccc(C(C)=O)cc1` displayed a log partition coefficient (logP) of 1.01.

The compound `CCOc1cccc2cccnc12` gave a logP of 2.25.

In turn, `CC(C)CC(N)Cc1ccccc1` (stereo unspecified) had a logP of 3.29.

As to `CCOC(=O)C(SP(=S)(OC)OC)c1ccccc1` (stereo unspecified), the lipophilicity (logP) amounted to 3.69.

For `CN(C)c1ccc(N=Nc2ccccc2)cc1`, the log partition coefficient (logP) came to 4.58.

As to `CCC(Br)(CC)C(=O)NC(N)=O`, the logP came to 1.54.

`Oc1ccc(I)cc1` registered a log partition coefficient (logP) of 2.91.

In the case of `OC(c1ccccc1)(C(F)(F)F)C(F)(F)F`, the logP amounted to 3.41.

`CC(C)c1cccc(OCC(=O)O)c1` showed a lipophilicity (logP) of 2.59.

In turn, `Cc1ccc2cc(C)ccc2c1` registered a logP of 4.31.

Compound `CC(C)C(=O)NC(N)=O` showed a logP of 0.04.

Turning to `CCCC[N+](=O)[O-]`, the logP is 1.47.

On to `O=Nc1ccccc1`, for which the logP was 2.01.

In the case of `CCOS(=O)(=O)OCC`, the logP came to 1.14.

In turn, `Cc1[nH]cnc1CSCCNc1cccc(=O)[nH]1` had a log partition coefficient (logP) of 0.79.

`NC(=O)Nc1cccc(Cl)c1` registered a logP of 1.82.

`O=CNc1ccc(Cl)cc1`: the logP was found to be 2.04.

`Nc1ccc(C(=O)O)c(I)c1` registered a logP of 1.65.

For `CCCN(CC)C(CC)C(=O)Nc1c(C)cccc1C` (stereo unspecified), the logP was determined as 3.69.

`CC(=O)N(C)N=Nc1ccc(C)cc1`: the logP is 3.23.

`CN(N=O)C(=O)Nc1ccccc1` displayed a log partition coefficient (logP) of 1.72.

`Nc1ccc(S(=O)(=O)Nc2ncccn2)cc1`: the log partition coefficient (logP) is -0.09.

Turning to `O=P1(N(CCCl)CCCl)NCCCO1` (stereo unspecified), the lipophilicity (logP) was found to be 0.63.

`Cn1ccc(=O)[nH]c1=O`: the logP was -1.2.

On to `CC(C)NNC(=O)COc1cccc(Cl)c1`, for which the log partition coefficient (logP) worked out at 1.91.

The compound `C=CCNCC` registered a logP of 0.81.

As for `COC(=O)CCCO`, the logP is -0.06.

Compound `CCCCC1CC(C(=O)NC(C(C)O)C2OC(SC)C(O)C(O)C2O)N(C)C1` (stereo unspecified) gave a logP of 0.56.

In turn, `CSCS(=O)CC(CO)NC(=O)C=Cc1c(C)[nH]c(=O)[nH]c1=O` (stereo unspecified) came in with a lipophilicity (logP) of -1.71.

With `O=C1C=C(N2CC=CC2)C(=O)c2ccccc21`, the logP was found to be 2.85.

On to `CCN(N=O)C(C)C`, for which the logP is 0.9.

`O=C(NCC(O)CO)c1c(I)c(N(CCO)C(=O)CO)c(I)c(N(CCO)C(=O)CO)c1I` (stereo unspecified) displayed a logP of -2.55.

In turn, `CCc1cccc(CC)c1N(COC)C(=O)CCl` gave a lipophilicity (logP) of 3.52.

Regarding `O=C(O)Cc1cccc([N+](=O)[O-])c1`, the logP is 1.45.

For `CCOC(=O)c1ccccn1`, the logP stood at 0.87.

Regarding `CC(C)[C@@H](N)Cc1ccccc1`, the log partition coefficient (logP) was determined as 2.59.

With `Cc1nn(C)c(OCC(=O)c2ccccc2)c1C(=O)c1ccc(Cl)cc1Cl`, the logP came to 3.69.

Compound `COP(=S)(OC)Oc1ccc([N+](=O)[O-])c(C(C)C)c1` yielded a lipophilicity (logP) of 4.05.

`Cc1cc2nccnc2cc1C`: the logP came out at 2.29.

For `COc1ccc(S(N)(=O)=O)cc1C(=O)NCC1CCCN1Cc1ccc(F)cc1` (stereo unspecified), the logP turned out to be 2.46.

For the compound `N#CCCc1ccccc1`, the log partition coefficient (logP) was 1.72.

`CC(C)C(Cl)C(=O)NC(N)=O` (stereo unspecified) showed a logP of 1.

Regarding `O=C(NCCN1CCC(O)(c2ccc(Cl)cc2)CC1)c1ccc(F)cc1`, the lipophilicity (logP) is 2.85.

`c1cn[nH]c1` came in with a lipophilicity (logP) of 0.26.

`C1OC1C1CO1` (stereo unspecified) came in with a lipophilicity (logP) of -0.52.

In the case of `CCCCOC(=O)n1cnc(CSCCNC(=NC#N)NC)c1C`, the log partition coefficient (logP) turned out to be 2.15.

For `O=C(O)c1cc([N+](=O)[O-])ccc1O`, the logP was determined as 2.34.

In turn, `CN1CC(=O)NC1=N` came in with a logP of -1.76.

For the compound `O=C(NP(=O)(N1CC1)N1CC1)c1ccccc1Br`, the logP was 1.08.

In turn, `O=[N+]([O-])c1nccn1CC(F)CO` (stereo unspecified) showed a logP of -0.38.

Regarding `CCOC(=O)C(=Cc1ccc(F)cc1)C(=O)OCC`, the logP is 3.1.

`O=[N+]([O-])c1ccncc1` came in with a logP of 0.33.

In turn, `CC(C)COC(=O)n1cnc(CC(NC(=O)C2CCC(=O)N2)C(=O)N2CCCC2C(N)=O)c1` (stereo unspecified) gave a logP of -0.44.

Regarding `Nc1ccccn1`, the logP was 0.48.

Broadly, the logP is a log measure of how a compound divides between an organic and an aqueous phase. A lower logP goes with lower lipophilicity.

Source of the values: the OPERA property sets (Mansouri et al. 2018).
